Two molecules from patent publication US11286281B2, “Homodetic cyclic peptides targeting alpha-4-beta-7 integrin” (priority 2017, dated 2022) can be followed below.

The target of the test is T1, integrin α4β7 (Homo sapiens, UniProt P13612+P26010).
T1 sequence (P13612 34-1032): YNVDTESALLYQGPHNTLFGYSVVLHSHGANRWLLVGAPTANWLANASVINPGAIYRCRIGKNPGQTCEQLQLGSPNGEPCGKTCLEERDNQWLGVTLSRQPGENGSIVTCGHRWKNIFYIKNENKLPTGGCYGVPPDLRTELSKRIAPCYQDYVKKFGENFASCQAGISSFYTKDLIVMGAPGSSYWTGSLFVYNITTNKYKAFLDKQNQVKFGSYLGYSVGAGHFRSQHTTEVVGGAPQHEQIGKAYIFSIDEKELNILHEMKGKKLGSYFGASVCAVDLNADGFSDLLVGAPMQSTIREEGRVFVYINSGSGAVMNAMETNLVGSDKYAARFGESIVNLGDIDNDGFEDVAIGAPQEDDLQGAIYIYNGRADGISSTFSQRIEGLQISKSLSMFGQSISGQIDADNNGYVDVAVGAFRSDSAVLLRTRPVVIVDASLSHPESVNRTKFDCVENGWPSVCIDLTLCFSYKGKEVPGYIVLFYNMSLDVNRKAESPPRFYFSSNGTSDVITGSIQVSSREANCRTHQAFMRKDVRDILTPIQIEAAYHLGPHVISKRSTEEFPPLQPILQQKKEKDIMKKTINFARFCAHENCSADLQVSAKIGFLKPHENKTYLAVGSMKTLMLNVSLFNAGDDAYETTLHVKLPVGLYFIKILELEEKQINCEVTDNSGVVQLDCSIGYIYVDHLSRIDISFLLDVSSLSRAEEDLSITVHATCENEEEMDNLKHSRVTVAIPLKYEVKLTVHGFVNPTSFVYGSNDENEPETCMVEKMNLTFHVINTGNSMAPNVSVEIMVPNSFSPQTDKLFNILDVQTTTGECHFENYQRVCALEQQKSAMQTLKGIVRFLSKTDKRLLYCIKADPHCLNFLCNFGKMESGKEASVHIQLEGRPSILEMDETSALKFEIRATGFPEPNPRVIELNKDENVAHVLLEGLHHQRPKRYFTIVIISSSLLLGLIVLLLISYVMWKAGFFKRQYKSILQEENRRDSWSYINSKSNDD
T1 sequence (P26010 20-798): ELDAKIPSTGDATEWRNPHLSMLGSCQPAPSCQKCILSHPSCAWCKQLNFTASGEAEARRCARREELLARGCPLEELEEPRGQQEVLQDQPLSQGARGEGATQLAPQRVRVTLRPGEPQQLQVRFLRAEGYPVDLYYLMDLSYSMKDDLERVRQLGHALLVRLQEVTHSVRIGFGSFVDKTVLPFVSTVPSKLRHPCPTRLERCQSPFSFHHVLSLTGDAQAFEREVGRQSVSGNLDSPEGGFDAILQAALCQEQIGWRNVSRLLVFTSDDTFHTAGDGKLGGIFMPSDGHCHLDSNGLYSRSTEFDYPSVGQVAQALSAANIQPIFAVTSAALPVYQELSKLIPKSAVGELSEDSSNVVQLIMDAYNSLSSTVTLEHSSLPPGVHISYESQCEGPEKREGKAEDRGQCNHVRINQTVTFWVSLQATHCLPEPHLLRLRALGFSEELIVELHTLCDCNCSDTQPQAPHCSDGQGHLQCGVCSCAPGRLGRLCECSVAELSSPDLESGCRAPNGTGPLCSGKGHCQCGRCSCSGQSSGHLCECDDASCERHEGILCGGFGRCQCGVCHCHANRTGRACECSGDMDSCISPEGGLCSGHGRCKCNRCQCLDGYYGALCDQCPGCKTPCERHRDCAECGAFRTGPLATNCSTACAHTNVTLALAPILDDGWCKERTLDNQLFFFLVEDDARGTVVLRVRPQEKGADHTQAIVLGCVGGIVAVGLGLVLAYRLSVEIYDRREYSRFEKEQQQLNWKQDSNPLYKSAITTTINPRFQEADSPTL
Description: Whole blood ligand displacement (receptor occupancy): biotinylated rhMAdCAM-1 binding to α4β7+ Th memory cells. The format is cell-based. The conditions noted are these: for selectivity of RO versus α4β1 (fold difference in IC50 between assays): whole blood, α4β7 versus α4β1. Here is the method: Receptor occupancy (RO) in primary cells was determined by measuring the amount of biotinylated human recombinant MAdCAM-1-FC or human recombinant VCAM-1-Fc bound to selected cell populations using flow cytometry. Human recombinant MAdCAM-1-FC or human recombinant VCAM-1-FC (R&D systems) were biotinylated using commercially available reagents and protocol (Pierce). Whole blood was collected from human donors in sodium heparin tubes. […] Cells were washed twice with 1 mL of 1×DPBS calcium magnesium free(CMF) (ThermoFisher Scientific) and resuspended in 100 μL of DPBS CMF. […] Cells were washed with 1 mL stain buffer-FBS (BD Biosciences) and resuspended in 100 μl stain Buffer-FBS (BD Biosciences) containing 4 mM MnCl2. […] Cells were then washed with 1 mL stain buffer-FBS and resuspended in 100 μl stain buffer-FBS. The cells were incubated in the dark for 30 minutes at room temperature with 1 μl Streptavidin APC (Biolegend 0.2 mg/ml) and a panel of antibodies for the detection of memory T helper a4b7-positive cells subset. And amount of 5.0 μl each of the following antibodies were used; CD45 FITC (BioLegend 200 μg/ml), CD29 APC Cy7 (BioLegend 100 μg/ml), Integrin beta7 PE, (BioLegend concentration 50 μg/mL), CD49d […] (BioLegend 50 μg/mL), CD3 […] (BioLegend 30 μg/mL), CD4 PECy7 (BioLegend 100 μg/mL), CD45RO PerCP, BioLegend 200 μg/mL). The cells were then washed with stain-buffer-FBS and resuspended in 150 μL stain buffer-FBS for acquisition on the flow cytometer (BD FACSCantoTM flow cytometer and […] software). FACS data was acquire by electronic gating on the basis of forward versus side scatter, The cytometer was set to collect 20,000 events in each tube. Cell population were determined using the following markers, CD45+, CD3+, CD4+, CD45RO+, CD49d+, integrin β7, biotinylated ligands.

[1] abbreviates: α4β7 Th memory cells, human whole blood, read-out: MAdCAM-1 Competition IC50 (receptor occupancy).

“And” between values parts separate entries of the source, which are not always exact repeats. Equal entries are not always repeated. Where two headings read alike, the source gives them in different places. Numbered stars: 1 amine (or outer) side, 2 acyl side, 3 side chain; on linkers, the order of the positions; unused ones are H or OH. Square brackets hold non-standard residues; d marks the D form. Peptide text beside a SMILES is read from it. X1 = O=C(c1ccc(-c2ccc(N3CCNCC3)cc2)c(CN[*:1])c1)[*:2] Bounds are passed on as bounds.

The IC50 is the concentration that inhibits the measured activity by half. In the case of `CC(C)C[C@@H]1NC(=O)c2ccc(-c3ccc(N4CCNCC4)cc3)c(c2)CNC(=O)[C@@H]2CCCN2C(=O)[C@H](C)NC(=O)[C@H]([C@@H](C)O)NC(=O)[C@H](CC(=O)O)NC1=O` [Compound 8] (cyclo(P[X1]LDTA)), the “selectivity of RO versus α4β1 (fold difference in IC50 between assays)” value is “no selectivity”. Also, the “competition with MAdCAM-1 on α4β7-positive primary cells, result in words” value (human whole blood) is given as “relatively weak concentration-response curve”. Further, the IC50 (human whole blood, read-out: α4β7 RO IC50) was over 4 µM. The IC50 under setting [1] was over 4 µM.

On to `CC(C)C[C@@H]1NC(=O)c2ccc(-c3ccc(N4CCN(Cc5cccc(CN6CCN(c7ccc(-c8ccc9cc8CNC(=O)[C@@H]8CCCN8C(=O)[C@H](C)NC(=O)[C@H]([C@@H](C)O)NC(=O)[C@H](CC(=O)O)NC(=O)[C@H](CC(C)C)NC9=O)cc7)CC6)c5)CC4)cc3)c(c2)CNC(=O)[C@@H]2CCCN2C(=O)[C@H](C)NC(=O)[C@H]([C@@H](C)O)NC(=O)[C@H](CC(=O)O)NC1=O` [Compound 18], for which the “selectivity of RO versus α4β1 (fold difference in IC50 between assays)” value was “selectivity versus α4β1”. Besides, under “human whole blood”, the “α4β7 RO IC50” value is listed as “sub-micromolar”. Moreover, the IC50 under setting [1] was 0.025 µM and 0.0247 µM.
